“Also recorded” adds a separate entry of the source. Like-named read-outs stand apart in the source and are kept apart here.
What was measured:
aqueous solubility = format: physicochemical; details: for solubility in water: salt forms
Description: FIG. 45 depicts tests of salt forms of A20 and A20-1 for aqueous solubility. Compounds were provided to the UT Southwestern PK Core facility and tested for soluble in water. While both are quite soluble, A20 salt was especially so and can be made into a […] solution, whereas A20-I salt can be dissolved into >15% solution.
A study was conducted with A20 salt dissolved solely in PBS and injected at 20 mg/kg to match the previously described study of the free-base. […] The results from the brain, spinal cord, and liver tissues are particularly outstanding and indicate that significant levels of A20 salt remain even after the final collection at 24 hr time point.
To examine the drug-like nature of the disclosed compounds, tests for solubility was conducted.

[1] = tested on: Zymosan-induced thermal pain in mice; assay: Zymosan inflammatory pain, thermal; format: in vivo, mouse; details: PO; for thermal pain ratio: A20 experiment vehicle close to 6
Description: An alternative and potentially faster pain model using Zymosin (an inflammatory agent like CFA) to induce inflammatory pain was tested. […] Mice were first acclimated to the pain testing set ups and then subjected to baseline mechanical and thermal pain measurements. Early in the morning the following day, the left hind paws were injected subcutaneously with 30 μL of Zymosan (5 mg/ml in PBS; Z4250, Sigma-Aldrich). Two hours after the Zymosan injection, the left hind paws were assessed for thermal pain using Hargreaves device (2-4 hr), and then left paws tested for mechanical pain using VF filaments (4-6 hr), and then again for thermal pain (6-8 hr). Data from two independent experiments were pooled to increase the n values for the three different genotypes. […] Thermal pain increased in all group following Zymosan injury as indicated by a decreased average response time to the infrared heat source in all animals assessed, and the level of pain intensified from the 2-4 hr testing period to the 6-8 hr period.
Inflammatory pain was induced by subcutaneous injection of 30 μl of 5 mg/ml Zymosan into the right hind paws of 12 wild-type adult male mice (5-6 months age, 129×1/SvJ background) that in previous days were acclimated to the testing chambers and assessed to obtain baseline pain measurements. After 15 min, mice were orally dosed with either vehicle only (97% PBS/3% DMSO) or with 20, 10, or 5 mg/kg of A20 (2×·HCl salt in vehicle), 3 mice for each condition. Two hours after Zymosan injection, the right hind paws were assessed for thermal pain using Hargreaves device (2-4 hr), then mice were orally dosed again with vehicle only or A20 chemicals, and then right paws tested for mechanical pain using VF filaments (4-6 hr), and then again for thermal pain (6-8 hr).
Inflammatory pain was induced by subcutaneous injection of 30 μl of 5 mg/ml Zymosan into the left hind paws of 9 wild-type adult males (5-6 months age, 129/CD1 mixed background) that in previous days were acclimated to the testing chambers and assessed to obtain baseline pain measurements. After 15 min, mice were orally dosed with either vehicle only (97% PBS/3% DMSO) or with 20 mg/kg of 3511-I (2×·HCl salt in vehicle), or 20 mg/kg BQPB4 (3×·HCl salt in 97% sunflower seed oil/3% DMSO), 3 mice for each condition. Two hours after Zymosan injection, the left […] hind paws were assessed for mechanical pain using VF filaments (2-4 hr), then mice were orally dosed again with vehicle only or A20 chemicals, and then left hind paws tested for thermal pain using Hargreaves device (4-6 hr), and then again for mechanical pain (6-8 hr).
Inflammatory pain was induced by subcutaneous injection of Zymosan into left hind paws, followed 15 min later with an oral dose of either vehicle or 20, 10, or 5 mg/kg of BQPB4 (3×·HCl salt in 97% sunflower seed oil/3% DMSO). Two hours after Zymosan injection, the left hind paws were assessed for mechanical pain using VF filaments (2-4 hr), then mice were orally dosed again with vehicle or BQPB4 chemical, and then hind paws tested for thermal pain using Hargreaves device (4-6 hr), and then tested again for mechanical pain (6-8 hr). […] Calculation of pain ratios confirmed the significant dose-dependent effects of BQPB4 at blunting thermal pain (FIG. 92B).

[2] = water, read-out: aqueous solubility

| Structure (SMILES) | solubility in water (aqueous solubility) | thermal pain [1] | thermal pain ratio [1] | solubility (aqueous solubility; [2]) | further results |
| --- | --- | --- | --- | --- | --- |
| Oc1c(I)cc(CN2CCOCC2)c2cccnc12 [Compound 7, 7-iodo-5-(morpholinomethyl)quinolin-8-ol] | extremely soluble in water |  |  |  |  |
| Oc1c(Br)cc(CN2CCOCC2)c2cccnc12 [Compound 5, 7-bromo-5-(morpholinomethyl)quinolin-8-ol] | extremely soluble in water | significant reductions in both mechanical and thermal pain | around 3 |  |  |
| COc1ccccc1N1CCN(Cc2cc(I)c(O)c3ncccc23)CC1 [Compound 71, 7-iodo-5-((4-(2-methoxyphenyl)piperazin-1-yl)methyl)quinolin-8-ol] |  | significantly less thermal pain | ~3 |  |  |
| Oc1c(I)cc(CN2CCOCC2)c2cccnc12 [Compound 8, 4-((8-hydroxy-7-iodoquinolin-1-ium-5-yl)methyl)morpholin-4-ium chloride] |  |  |  | > 150 mg/mL |  |
| Oc1c(Br)cc(CN2CCOCC2)c2cccnc12 [Compound 6, 4-((7-bromo-8-hydroxyquinolin-1-ium-5-yl)methyl)morpholin-4-ium chloride] |  |  |  | > 1000 mg/mL | solubility (aqueous solubility; water or pbs, aqueous buffer, read-out: solubility in water or PBS): > 50 mg/mL |
| Oc1c(Br)cc(CN2CCN(c3ccc(Br)cc3)CC2)c2cccnc12 [Compound 28, 7-bromo-5-((4-(4-bromophenyl)piperazin-1-yl)methyl)quinolin-8-ol] |  |  | below 2 |  | thermal pain ([1]; listed as BQPB4): significantly less thermal pain; also recorded: the 20 mg/kg dose produced the strongest and most significant reduction in pain, followed by the 10 mg/kg dose, and then the 5 mg/kg dose |

Reference: US20260374739A1, “SMALL MOLECULAR WEIGHT CHEMICAL COMPOUND TO ANTAGONIZE EPH-EPHRIN TETRAMERIZATION AND INHIBIT BIDIRECTIONAL SIGNALING” (THE BOARD OF REGENTS OF THE UNIVERSITY OF TEXAS SYSTEM, priority 2022, published 2026)
